Experimental data from patent US10155948B2, “Pharmaceutical composition for preventing or treating diabetic complications and screening method for preventive or therapeutic agent for diabetic complications” (KANGWON NATIONAL UNIVERSITY UNIVERSITY-INDUSTRY COOPERATION …, priority 2016, dated 2018).

How the values were obtained:
retinas of diabetic mice = assay: Vascular leakage in retina of diabetic mice (fluorescein angiography, FITC-dextran); type: in vivo, mouse; conditions: for increase of vascular leakage in retinas of diabetic mice: intravitreal injection, 0.5 mM dopamine, 500 mM cysteamine, n=6; for vascular leakage in diabetic retina (FITC-dextran extravasation): diabetic mice, intravitreal 2 μl 50 mM cystamine or 20 mM MDC, after 24 hrs, p<0.001, n=8
Experimental: Two weeks after streptozotocin injection, diabetic mice were intravitreally injected with 2 μl of TGase inhibitors (50 mM cystamine or 20 mM MDC), 1 μM C-peptide (American Peptide Company, Sunnyvale, Calif.), ROS scavengers (2 μM Trolox or 500 mM NAC), or 65 μM mouse TG2-specific siRNA (Dharmacon, Lafayette, Colo.) into one eye and an equal volume of PBS or mouse control siRNA (Dharmacon, Lafayette, Colo.) into the contralateral eye. Non-diabetic mice were also intravitreally injected with 2 μl of PBS or mouse control siRNA into the eyes. After 24 hrs for inhibitors or C-peptide or 48 hrs for mouse TGase2 siRNA, mice were subjected to measurement of in-vivo TGase activity and vascular leakage from the retina.
Microvascular leakage in mouse retina was investigated via the fluorescein angiography method as previously described. In brief, 24 hrs or 48 hrs after intravitreal injection of TGase2 inhibitors or mouse TGase2 siRNA, respectively, mice were deeply anaesthetized and 1.25 mg of 500 kDa FITC-dextran (Sigma) was injected into the left ventricle. The dye was allowed to circulate for 5 min and mice were sacrificed via cervical dislocation. The eyes were enucleated and immediately fixed with 4% paraformaldehyde for 45 min. Retinas were dissected in the Maltese cross-configuration and flat-mounted onto glass slides. The superficial vessels of the retinas (n=8 per group) were observed by confocal microscopy and vascular leakage was quantitatively analyzed using the Fluoview software by determining the fluorescence intensities of FITC-dextran extravasated from the retina vessel.
Six-week-old male C57BL/6 mice were obtained from KOATECH (Pyeongtaek, Korea). TGase2^−/− mice (C57BL/6) were prepared by disrupting exons 5 and 6 of TGase2 by homologous recombination, as previously described. Diabetic mice were generated by a single intraperitoneal injection of streptozotocin (150 mg/kg body weight, Sigma) freshly prepared in 100 mM citrate buffer (pH 4.5) as previously described. Mice with non-fasting blood glucose levels greater than 19 mM, polyuria and glucosuria were considered diabetic. Experiments were performed in strict accordance with the guidelines of the Institutional Animal Care and Use Ethics Committee of Kangwon National University.
(A, B) Streptozotocin-diabetic mice were intravitreally injected with PBS (diabetic), cystamine (diabetic+Cys) or MDC (diabetic+MDC) into the eyes. Non-diabetic mice were also intravitreally injected with PBS into eyes (normal). […] (B) Retina permeability was quantified by measuring the fluorescence intensities of FITC-dextran in (A). […]
Dopamine and cysteamine were intravitreally injected into mouse eyes, and diabetic retinas were then analyzed for vascular leakage through fluorescein angiography.

VE-cadherin = assay: Visualization of VE-cadherin (adherens junction disruption) in HRECs; type: cell-based, human; conditions: for VEGF-induced VE-cadherin disruption: summary statement, conditions not given; for VEGF-induced VE-cadherin breakdown: HRECs, 50 μM cystamine or 20 μM MDC 30 min, 10 ng/ml VEGF
Experimental: Actin filaments and VE-cadherin were visualized as previously described. For visualization of actin filaments, cells were treated with 10 ng/ml VEGF for 1 hr at 37° C., fixed with 3.7% formaldehyde, and permeabilized with 0.2% Triton X-100. […] For visualization of VE-cadherin, cells were preincubated with the TGase2 inhibitors for 30 min and treated with 10 ng/ml VEGF for 90 min at 37° C. Following fixation and permeabilization, cells were incubated overnight with a monoclonal anti-VE-cadherin antibody (1:200, Santa Cruz Biotechnology) at 4° C. Cells were then probed with an FITC-conjugated goat anti-mouse antibody (1:200, Sigma) and VE-cadherin was visualized using confocal microscopy. Adherens junctions are represented by histograms of VE-cadherin as indicated by dotted lines and were quantitatively analyzed using peak fluorescence intensities of the histograms at the single-cell level for 10 randomly selected cells per experiment.
(A-C) HRECs were preincubated with 50 μM cystamine (Cys) and 20 μM MDC for 30 min and treated with 10 ng/ml VEGF. Stress fibers and VE-cadherin were stained and visualized by confocal microscopy as described in Research Design and Methods (n=3) ((A) Representative images of stress fibers. Scale Bar, 30 μm. (B) Representative images of VE-cadherin. Scale Bar, 10 μm). Adherens junctions are represented by histograms of VE-cadherin as indicated by dotted lines. (C) Adherens junctions were quantitatively analyzed using the peak fluorescence intensities of the histograms at the single-cell level. The results are expressed as mean±SD from three independent trials. (D) In-vitro endothelial cell monolayer permeability assay. HRECs on inserts of Transwell® Permeable Supports were incubated with 50 μM cystamine and 20 μM MDC for 30 min and treated with 10 ng/mL VEGF for 90 min. The amount of FITC-dextran that diffused to the lower chamber was measured by a microplate spectrofluorometer (n=3) (**p<0.01).
HRECs were transfected with 100 nM human TGase2-specific siRNA (TGase2 siRNA) or 100 nM control (Ctrl) siRNA. Endothelial cells were treated with 10 ng/ml VEGF and subjected to the confocal microscopic visualization of stress fibers (A) and VE-cadherin (B), as described in Research Design and Methods (n=3). (A) TGase2 siRNA inhibition of VEGF-induced formation of stress fibers. Scale bar, 30 μm. (B) Representative images of VE-cadherin and adherens junctions represented by VE-cadherin histograms. Scale bar, 10 μm. (C) Adherens junctions were quantitatively analyzed using peak fluorescence intensities of the histograms at the single-cell level. Results are expressed as mean±SD from three independent experiments (***p<0.001).

SMILES | increase of vascular leakage in retinas of diabetic mice (retinas of diabetic mice) | VEGF-induced VE-cadherin disruption (VE-cadherin) | vascular leakage in diabetic retina (FITC-dextran extravasation) (retinas of diabetic mice) | VEGF-induced VE-cadherin breakdown (VE-cadherin)
NCCc1ccc(O)c(O)c1 [dopamine] | inhibited | prevented |  | 
NCCSSCCN [cystamine] |  |  | prevented | inhibited
CN(C)c1cccc2c(S(=O)(=O)NCCCCCN)cccc12 [MDC, monodansylcadaverine] |  |  | prevented | inhibited
NCCS [cysteamine] | inhibited | prevented |  | 
